Consider five compounds from paper PMC6801448, “The Antioxidant and Antiproliferative Activities of 1,2,3-Triazolyl-L-Ascorbic Acid Derivatives” (International Journal of Molecular Sciences, 2019).

Like-named read-outs stand apart in the source and are kept apart here. A value given as a limit tells only on which side of the number the result lay.

Series [1] concerns HepG2 (hepatocellular carcinoma). The series is described as follows: MTT proliferation assay, HepG2. Type of series: cell-based. As to conditions: Homo sapiens, 72 h. The gist of the method:
(§1)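 Following a 24 h attachment at 5000 cells per well, cultures in DMEM supplemented with 10% FBS were incubated with compound for 72 h; MTT formazan was then quantified at 570 nm to compute IC50.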

The test system of series [2] is HeLa (cervical carcinoma). In words: MTT proliferation assay, HeLa. Particulars: Homo sapiens, 72 h. The class given is cell-based. The gist of the method: as §1
Series [3] concerns SW620 (colorectal adenocarcinoma, metastatic). The series is described as follows: MTT proliferation assay, SW620. The class given is cell-based. As to conditions: Homo sapiens, SW-620, 72 h. An outline of the steps:
as §1

Series [4] is described as follows: DPPH radical scavenging assay. The class given is biochemical. The gist of the method:
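Compounds at 0.06, 0.12, 0.18, 0.23, 0.25 and 0.28 mM reacted with the stable DPPH• radical. Absorbance at 517 nm was read 5 and 10 min after mixing to follow DPPH reduction, with L-ascorbic acid as the reference.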
(In general: DPPH is a stable violet radical that fades when it is reduced.)

The test system of series [5] is tested cell lines (A549, CFPAC-1, HCT-116, HeLa, HepG2, MCF-7, SW620, WI-38, HFF-1). In words: MTT proliferation assay, whole tested cell panel. Type of series: cell-based, Human. Particulars: 0.01 µM to 100 µM, 72 h. Here is the method: The C-6 substituted 1,2,3-triazole derivatives of L-ASA within the C5-OH group ([…], 4i, 4k−4t, and 4v) and with the C4=C5 double bond (7c−7g and 7i−7q) were evaluated against seven malignant tumor cell lines: lung adenocarcinoma (A549), ductal pancreatic adenocarcinoma (CFPAC-1), colorectal carcinoma (HCT-116), cervical carcinoma (HeLa), hepatocellular carcinoma (HepG2), breast adenocarcinoma (MCF-7), colorectal adenocarcinoma, and metastatic (SW620); as well as normal cell lines: lung fibroblasts (WI-38) and foreskin fibroblasts (HFF-1) (Table 3, Table S1, Supplementary Information). L-ASA was used as a positive control, and carboxyamidotriazole, a known antiproliferative agent that inhibits tumor cell growth, invasion, and metastasis, and 5-fluorouracil (5-FU), were used as reference compounds.
(§2) Human tumor cell lines HeLa (cervical carcinoma), SW620 (colorectal adenocarcinoma, metastatic), A549 (lung adenocarcinoma), MCF−7 (breast adenocarcinoma), CFPAC-1 (pancreatic adenocarcinoma, metastatic), HCT-116 (colorectal carcinoma), and HepG2 (hepatocellular carcinoma), and normal cell lines HFF-1 (foreskin fibroblasts) and WI-38 (immortalized human lung fibroblast), were from the US American Type Culture Collection (ATCC, Manassas, VA, USA). Cells were cultured in a liquid nutrient medium (Dulbecco’s Modified Eagle Medium, LONZA, Basel, Switzerland) supplemented with 10% fetal bovine serum (FBS, Gibco, Grand Island, NY, USA), 2 mM L-glutamine (GIBCO, Grand Island, NY, USA), 100 μg/mL penicillin, and 100 μg/mL streptomycin (LONZA, Basel, Switzerland), in an incubator (NÜVE, Ankara, Turkey), at a humid atmosphere with 5% CO2 at 37 °C. Trypsin/EDTA Solution (Lonza, Basel, Switzerland), was used for cell passaging and cell detachment.
(§3) Adherent cells were seeded on 96 well microtiter plates (Falcon, New York, NY, USA) at a seeding density of 5000 cells per well, added in 150 μL of cell suspension in a nutrient medium. 24 h after seeding, cells were treated with compound 4b–4g, 4i, 4k–4t, 4v, 7c–7g, and 7i–7q dilutions in the range of 0.01 μM to 100 μM. L-ascoric acid (Sigma Aldrich, Darmstadt, Germany) and Carboxyamidotriazole (Sigma Aldrich, Darmstadt, Germany) were used as control compounds. Incubation of the cells with the compounds were performed for 72 h in a 5% CO2, in humid atmosphere at 37 °C. After incubation, nutrient medium was removed and 40 μL of the MTT reagent ([…]-2,5-diphenyltetrazole bromide (Invitrogen, Carlsbad, CA, USA) was added to each well. 3 h after incubation, 160 μL of DMSO (VWR CHEMICALS, Radnor, PA, USA) were added to each well to dissolve the crystals of purple formazane. The absorbance was measured at 570 nm (TECAN SUNRISE Microtiter plate reader (Männedorf, Switzerland). The experimentally measured optical densities (OD) were converted to the PG (percentage of growth), using the formulas according to the protocol assumed by NIH (National Institute of Health). The IC50 values (concentration causing 50% cell growth inhibition) for each compound were calculated by regression analysis of the survival count curve of the concentrations of the tested compounds. The results were processed in Excel 2010 (Microsoft, Redmond, WA, USA).
For orientation: Tetrazolium dyes change colour on reduction, which living cells bring about.

In series [6] the test system is MCF-7 (breast adenocarcinoma). In words: MTT proliferation assay, MCF-7. The class given is cell-based, Human. Particulars: Homo sapiens, MCF7; 72 h, MTT. The gist of the method: as §1
Another series has as its system WI-38 (lung fibroblasts). In words: MTT proliferation assay, WI-38. Particulars: Homo sapiens, 72 h, normal lung fibroblasts. The class given is cell-based. The gist of the method:
as §1

Series [7] concerns CFPAC-1 (ductal pancreatic adenocarcinoma). The series is described as follows: MTT proliferation assay, CFPAC-1. Type of series: cell-based. As to conditions: Homo sapiens, 72 h. The gist of the method:
as §1

Series [8] has as its system HFF-1 (foreskin fibroblasts). The series is described as follows: MTT proliferation assay, HFF-1. Type of series: cell-based. Particulars: Homo sapiens, 72 h, normal foreskin fibroblasts. The procedure: as §2, §3
The subject of series [9] is A549 (lung adenocarcinoma). In words: MTT proliferation assay, A549. Type of series: cell-based. Particulars: Homo sapiens, 72 h. The gist of the method:
as §1

Series [10] relates to HCT-116 (colorectal carcinoma). In words: MTT proliferation assay, HCT-116. Type of series: cell-based. As to conditions: Homo sapiens, 72 h. An outline of the steps:
as §1

Where [11] appears, read: 5 min treatment, read-out: IC50 of DPPH• inhibition, Treatm. 5 min.
The mark [12] stands for this setting: 10 min treatment, read-out: IC50 of DPPH• inhibition, Treatm. 10 min.

One may read the IC50 as the concentration that inhibits the measured activity by half. Usually melting point stands for the temperature, or range, at which the solid turns liquid. `O=C1O[C@H]([C@@H](O)Cn2cc(-c3cc(F)cc(F)c3)nn2)C(O)=C1O` [Compound 4d, 6-deoxy-6-[4-(3,5-difluorophenyl)-1,2,3-triazol-1-yl]-L-ascorbic acid] had a melting point of 189 to 191 °C. This compound also registered an IC50 in [1] of 95.3 µM. Also, the IC50 in series [2] was 56.8 µM. The half-inhibitory concentration (IC50) in [3] was 92 µM. The IC50 in series [4] (setting [11]) came to 270 ± 10 µM. For the same compound, in series [4] (setting [12]), the IC50 worked out at 270 µM. The “antiproliferative / cytotoxic effect on the tested cell lines (in words)” value (from here on “antiproliferative / cytotoxic effect”) in [5] was “nonspecific cytostatic effect”. Further, 39.8 µM corresponded to half-maximal inhibition in [6] (IC50). The compound also returned an IC50 with WI-38 (lung fibroblasts) greater than 100 µM. Besides, in [7], the half-inhibitory concentration (IC50) amounted to 75.8 µM. In [8], this compound showed an IC50 of 0.12 µM. For the same compound, the IC50 in [9] was 81.7 µM. The compound further returned an IC50 in series [10] of 64.8 µM.
Turning to `COc1ccc(-c2cn(C[C@H](O)[C@H]3OC(=O)C(O)=C3O)nn2)cc1` [Compound 4g, 6-deoxy-6-[4-methoxyphenyl-1,2,3-triazol-1-yl]-L-ascorbic acid], the IC50 was greater than 100 µM in [1]; greater than 100 µM in [2]; greater than 100 µM in series [3]; 190 ± 10 µM in series [4] (setting [11]); 190 ± 10 µM in [4] (setting [12]); greater than 100 µM in [6]. Further, the concentration for half-maximal inhibition (IC50) (in the series on WI-38 (lung fibroblasts); in [7]; in series [8]; in series [9]; in [10]) was greater than 100 µM in each case. The “antiproliferative / cytotoxic effect” value in series [5] is “did not show any cytotoxic effects”.
`O=C1O[C@H]([C@@H](O)Cn2ccnn2)C(O)=C1O` [Compound 4b, 6-deoxy-6-(1,2,3-triazol-1-yl)-L-ascorbic acid] gave a melting point of 219 to 221 °C. Also, in series [1], the IC50 is greater than 100 µM. Further, the IC50 in [2] was greater than 100 µM. Moreover, in series [3], the IC50 was greater than 100 µM. Also, in series [4] (setting [11]), the IC50 is 130 µM. Besides, the IC50 in series [4] (setting [12]) is 130 µM. Besides, the “antiproliferative / cytotoxic effect” value in series [5] is “not cytotoxic”. Also, the IC50 in [6] is greater than 100 µM. In addition, the IC50 in the series on WI-38 (lung fibroblasts) was greater than 100 µM. In series [7], this compound came in with an IC50 greater than 100 µM. Also, the IC50 in series [9] was greater than 100 µM. Besides, the IC50 in [10] was greater than 100 µM.
In the case of `NC(=O)c1nnn(Cc2cc(Cl)c(C(=O)c3ccc(Cl)cc3)c(Cl)c2)c1N` [Carboxyamidotriazole, carboxyamidotriazole, reference compound], the IC50 in [1] is 40.1 µM; in [2] it was 31.8 µM; in [3], 41.3 µM; in [6] it was 14.7 µM; in [7], 41.6 µM; in series [8], 32.6 µM. Besides, the IC50 amounted to 51.6 µM in series [9] and 19.9 µM in series [10]. The “antiproliferative / cytotoxic effect” value in series [5] is “non-selective, moderate antiproliferative effect”.
In turn, `Cc1ccc(-c2cn(C[C@H](O)[C@H]3OC(=O)C(O)=C3O)nn2)cc1` [Compound 4f, 6-deoxy-6-[4-tolyl-1,2,3-triazol-1-yl]-L-ascorbic acid] registered a melting point of 152 to 154 °C. Moreover, the IC50 in series [1] was greater than 100 µM. The compound also returned a half-maximal inhibitory concentration (IC50) in [2] greater than 100 µM. Moreover, the half-inhibitory concentration (IC50) in series [3] was greater than 100 µM. For the same compound, the IC50 in series [4] (setting [11]) stood at 200 ± 20 µM. In [4] (setting [12]), the IC50 is 140 ± 10 µM. Also, in [5], the “antiproliferative / cytotoxic effect” value is recorded as “did not show any cytotoxic effects”. This compound registered an IC50 in series [6] greater than 100 µM. The same compound showed a half-maximal inhibitory concentration (IC50) in the series on WI-38 (lung fibroblasts) greater than 100 µM. The same compound registered an IC50 in [7] greater than 100 µM. The compound further registered an IC50 in [8] of 69.3 µM. The IC50 in [9] is greater than 100 µM. The compound further displayed an IC50 in [10] greater than 100 µM.
